# Measurements taken from patent US20130323314A1, “Novel Nanoparticles of Lactoferrin Useful for Preparing a Pharmaceutical Composition Facilitating Easy Delivery of the Drug and a Process for Preparing the Same” (UNIVERSITY OF HYDERABAD, priority 2011, published 2013).
# Counter-ions that a name gives are not always drawn. Like-named read-outs stand apart in the source and are kept apart here. Marks after values point to notes of the source that are not given here.
# Columns and labels:
# [1] = in vivo; conditions: rat, po
# [2] = Pharmacokinetics and tissue distribution after subcutaneous administration; conditions: rat
# [3] = Pharmacokinetics and tissue distribution after intramuscular administration; conditions: rat
# [4] = in vivo; conditions: rat, im
# [5] = Pharmacokinetics and tissue distribution after intravenous administration; conditions: rat
# [6] = tested on: heart; conditions: rat, in vivo
# [7] = Pharmacokinetics and tissue distribution after oral administration; conditions: rat
# [8] = in vivo; conditions: rat, iv
# [9] = in vivo; conditions: rat, sc
smiles,measurement,setting,value
"COc1cccc2c1C(=O)c1c(O)c3c(c(O)c1C2=O)C[C@@](O)(C(=O)CO)C[C@@H]3O[C@H]1C[C@H](N)[C@H](O)[C@H](C)O1 [Doxo, Doxorubicin hydrochloride]",Cmax,[1]; heart,17200 ng/g
same,MRT last,[1]; in vivo,8.21 h
same,Tmax,[1]; in vivo,8 h
same,Cmax,[1]; kidney,32900 ng/g
same,Cmax,[1]; liver,17400 ng/g
same,Cmax,[1]; spleen,11100 ng/g
same,AUC,[2]; Blood,167.94 (h) * (μg/μL)
same,AUMC,[2]; Blood,1745.8 (h)^2 * (μg/μL)
same,Cmax,[2]; Blood,12855 µg/mL
same,MRT last,[2]; Blood,10.394 h
same,t½,[2]; Blood,7.0001 h
same,AUC,[2]; Heart,467.46 (h) * (μg/μL)
same,AUMC,[2]; Heart,13515 (h)^2 * (μg/μL)
same,Cmax,[2]; Heart,18198 µg/mL
same,MRT last,[2]; Heart,28.912 h
same,t½,[2]; Heart,18.662 h
same,AUC,[2]; Kidney,2249.1 (h) * (μg/g)
same,AUMC,[2]; Kidney,19205 (h)^2 * (μg/g)
same,Cmax,[2]; Kidney,200.93 h
same,MRT last,[2]; Kidney,8.5383 h
same,t½,[2]; Kidney,3.888 h
same,AUC,[2]; Liver,1025 (h) * (μg/μL)
same,AUMC,[2]; Liver,10140 (h)^2 * (μg/μL)
same,Cmax,[2]; Liver,71123 µg/mL
same,MRT last,[2]; Liver,9.8923 h
same,t½,[2]; Liver,5.9991 h
same,AUC,[2]; Spleen,553.3 (h) * (μg/g)
same,AUMC,[2]; Spleen,7927.3 (h)^2 * (μg/g)
same,Cmax,[2]; Spleen,34.747 h
same,MRT last,[2]; Spleen,14.327 h
same,t½,[2]; Spleen,5.3088 h
same,AUC,[3]; Blood,185.4 (h) * (μg/μL)
same,AUMC,[3]; Blood,1581.8 (h)^2 * (μg/μL)
same,Cmax,[3]; Blood,11032 µg/mL
same,MRT last,[3]; Blood,8.5317 h
same,t½,[3]; Blood,4.466 h
same,AUC,[3]; Heart,510.54 (h) * (μg/g)
same,AUMC,[3]; Heart,12046 (h)^2 * (μg/g)
same,MRT last,[3]; Heart,23.595 h
same,t½,[3]; Heart,13.27 h
same,AUC,[3]; Kidney,2580.5 (h) * (μg/g)
same,AUMC,[3]; Kidney,26548 (h)^2 * (μg/g)
same,MRT last,[3]; Kidney,10.288 h
same,t½,[3]; Kidney,2.0438 h
same,AUC,[3]; Liver,751.01 (h) * (μg/g)
same,AUMC,[3]; Liver,10278 (h)^2 * (μg/g)
same,MRT last,[3]; Liver,13.685 h
same,t½,[3]; Liver,4.9231 h
same,AUC,[3]; Spleen,899.9 (h) * (μg/g)
same,AUMC,[3]; Spleen,19234 (h)^2 * (μg/g)
same,MRT last,[3]; Spleen,21.374 h
same,t½,[3]; Spleen,13.602 h
same,Tmax,[4],8 h
same,Cmax,[5]; Blood,22286.7 µg/mL
same,t½,[5]; Heart,4.444 h
same,t½,[5]; Kidney,2.63 h
same,t½,[5]; Liver,3.432 h
same,t½,[5]; Spleen,3.833 h
same,toxicity to heart (safety analysis),[6],cardiotoxic
same,toxicity to heart (safety analysis),[6]; iv,cardiotoxic
same,toxicity to heart (safety analysis),[6]; po,cardiotoxic
same,toxicity to heart (safety analysis),[6]; sc,cardiotoxic
same,AUC,[7]; Blood,105.24 (h) * (μg/μL)
same,AUMC,[7]; Blood,1227.63 (h)^2 * (μg/μL)
same,Cmax,[7]; Blood,8250 µg/mL
same,t½,[7]; Blood,3.741 h
same,AUC,[7]; Heart,248.048 (h) * (μg/g)
same,AUMC,[7]; Heart,3211.86 (h)^2 * (μg/g)
same,MRT last,[7]; Heart,8.9708 h
same,Tmax,[7]; Heart,16 h
same,t½,[7]; Heart,7.533 h
same,AUC,[7]; Kidney,362.639 (h) * (μg/g)
same,AUMC,[7]; Kidney,4321.31 (h)^2 * (μg/g)
same,t½,[7]; Kidney,6.47 h
same,AUC,[7]; Liver,207.816 (h) * (μg/g)
same,AUMC,[7]; Liver,2379.51 (h)^2 * (μg/g)
same,MRT last,[7]; Liver,7.428 h
same,t½,[7]; Liver,6.099 h
same,AUC,[7]; Spleen,190.928 (h) * (μg/g)
same,AUMC,[7]; Spleen,2616.55 (h)^2 * (μg/g)
same,MRT last,[7]; Spleen,9.2978 h
same,t½,[7]; Spleen,5.894 h
same,Tmax,[8],8 h
same,half-life,[8],2.74 h
same,Tmax,[9],8 h
